Test results reported in ChEMBL document CHEMBL1159329, “Microbial transformations of isosteviol” (2002).

Tested on: Rattus norvegicus
Assay: Antihypertensive activity in deoxy-corticosterone acetate-induced Sprague-Dawley rat assessed as reduction of blood pressure at 4.8 mg/kg, iv
Type: functional

Row | SMILES | Activity [mmHg]
1 | C[C@@]12CC[C@]3(O)[C@@](CC[C@@H]4[C@](C)(C(=O)O)CCC[C@]43C)(CC1=O)C2 | 7
2 | C[C@@]12CC[C@@H]3[C@@](CC[C@H]4[C@@]3(C)CCC[C@@]4(C)C(=O)O)(CC1=O)C2 [ISOSTEVIOL] | 12
